The test system of one data set is Junin virus. Also noted: species or system guinea pigs. Particulars: guinea pig, in vivo.
A further data set concerns rJunin (rRomero) virus. More on the design: species or system guinea pigs. The settings on record: guinea pig, in vivo.
Data set [1] in a line: Pharmacokinetics and tolerability in guinea pigs (Example 1). The settings on record: 50 mg/kg PO, blood by vena cava bleed.
The subject of a further data set is Lassa (Josiah) virus. Also noted: species or system guinea pigs. The settings on record: guinea pig, in vivo.

Molecules are shown by their SMILES. Where two headings read alike, the source gives them in different places.

The compound `COc1ccc(C(CC(N)=O)N2Cc3ccccc3C2=O)cc1OC` (stereo not drawn) [Compound A, 3-(3,4-dimethoxy-phenyl)-3-(1-oxo-1,3-dihydro-isoindol-2-yl)-propionamide] showed an average weight loss in the data set with Junin virus of 0.69%. For the same compound, the survival rate with Junin virus is recorded as 50%; in the data set on rJunin (rRomero) virus, 33%; in the data set with rJunin (rRomero) virus (po, 50 mg/kg), 22%; with Lassa (Josiah) virus (po, 50 mg/kg) it was 44%. Moreover, the “temperature findings (febrile, hypothermic)” value (shortened to “temperature findings”) is “All animals that died were febrile between day +7 and +10 and two were hypothermic on day +14” with Junin virus; “All animals that died were febrile between day +7 and +15 and four out of six were hypothermic before death” in the data set with rJunin (rRomero) virus; “All animals that died were febrile between day +5 and +13 and three out of seven were hypothermic before death” in the data set with rJunin (rRomero) virus (po, 50 mg/kg); “All animals were febrile between day +7 and +19 and two were hypothermic before death” with Lassa (Josiah) virus; “All animals, including the survivors, were febrile between day +7 and +17 and none of the animals were hypothermic before death” in the data set with Lassa (Josiah) virus (po, 50 mg/kg). Besides, the “(highest) average weight loss” value is 1.33% in the data set with rJunin (rRomero) virus; 5.89% in the data set on rJunin (rRomero) virus (po, 50 mg/kg); 12.17% with Lassa (Josiah) virus; 5.36% with Lassa (Josiah) virus (po, 50 mg/kg). For the same compound, in data set [1], the “adequacy of the dose according to the pharmacokinetic results” value is on record as “within range”. Besides, the “animals surviving to the end of study” value in the data set with Lassa (Josiah) virus is “None of the animals survived”.

Consider `CCOc1cc(C(CS(C)(=O)=O)N2Cc3cccc(NC(=O)C4CC4)c3C2=O)ccc1OC` (stereo not drawn) [Compound B, N-(2-(1-(3-ethoxy-4-methoxyphenyl)-2-(methylsulfonyl)ethyl)-3-oxoisoindolin-4-yl)cyclopropanecarboxamide], for which, in the data set on Junin virus, the average weight loss is 4.4%; the survival rate is given as 17%; the “temperature findings” value is “Most of the animals in this group were febrile starting at day +7 but none were recorded as hypothermic”. In the data set with rJunin (rRomero) virus, the “(highest) average weight loss” value was found to be 12.41%; the survival rate came to 11%; the “temperature findings” value is “All of the animals in this group except the survivor were febrile starting day +7 thru +11 and four were recorded as hypothermic before death”. The “adequacy of the dose according to the pharmacokinetic results” value in data set [1] was “needed to be increased”. In the data set with Lassa (Josiah) virus, the “(highest) average weight loss” value was 13.08%; the survival rate worked out at 13%; the “temperature findings” value is “All of the animals in this group except the survivor were febrile starting day +8 thru +16 and only one was recorded as hypothermic before death”.

On to `NC(=O)c1ncn([C@@H]2O[C@H](CO)[C@@H](O)[C@H]2O)n1` [Ribavirin, reference compound], for which, in the data set on Junin virus, the “animals surviving to the end of study” value was “all 3 animals survived”; the “temperature findings” value is “Only 1 animal was febrile on day +27”; the “weight loss up to” value was “up to 5.2%”. In the data set with rJunin (rRomero) virus, the “animals surviving to the end of study” value is given as “all 3 animals survived”; the “temperature findings” value was “Only one animal was intermittently febrile between days +16 and +27”; the “weight loss of the intermittently febrile animal” value came out at 17.67%; the “weight loss up to” value is recorded as “up to 3.09%”. For the same compound, in the data set with Lassa (Josiah) virus, the “animals surviving to the end of study” value was “only one animal survived”; the “average group weight loss up to” value is on record as “up to 15.39%”; the “temperature findings” value is on record as “Only one of the two animals that died was febrile once on day +17”.

(Values after patent US20160289188A1, “COMPOSITIONS AND METHODS FOR THE TREATMENT OF VIRAL DISEASES WITH PDE4 MODULATORS” (priority 2013, published 2016).)
